Patent US20240041765A1, “ORAL LIQUID SUSPENSION OF PAN-RAF KINASE INHIBITOR” (DAY ONE BIOPHARMACEUTICALS, INC., priority 2022, published 2024)

Assay: Single oral dose mouse PK in male CD-1 mice
Format: in vivo
Details: plasma, single oral dose 50 mg/kg, Mean ± SD, n = 3, vehicle: Group 1 100% PEG400, Groups 2-3 DI water, Group 4 0.5% methylcellulose in water (w/v)
Description: Amorphous solid dispersions of Compound A in aqueous suspension formulations were administered via oral gavage in male CD-1 mice to assess Compound A plasma exposure. Pharmacokinetics (PK) of Compound A crystalline drug substance dissolved in organic solvent (PEG400) were used to generate a solution formulation—also included as the comparator group in this study. The concentrations of Compound A in mouse plasma were quantified with a qualified LC-MS/MS method.
Each oral dosing group consisted of 3 male CD-1 mice. At dosing, the animals weighted between 0.0297 to 0.0376 kg. Animals were not fasted prior to oral administration in this study. Compound A drug substances in corresponding dosing vehicles were administered by oral route using polypropylene gavage tube to CD-1 mice. Serial blood samples were collected at 0.25, 0.50, 1, 4, 8 and 24 hours post-dose. Serial blood samples were collected from a tail vein or another approved method at 0.25, 0.50, 1, 4, 8 hours post-dose. Terminal blood collection were collected via cardiac puncture at 24 hours post-dose.
Blood samples were collected into K2EDTA tubes according to in-life study protocol and immediately placed on wet ice and then centrifuged for 10 minutes at 3500 rpm for plasma preparation. All plasma samples were placed in 96-well strip-tube rack and stored in freezer until plasma analysis. Immediately following terminal blood collection, the brain tissue was collected for each animal. Each tissue was collected into pre-weighed tube and the weight of the tissue sample was determined. Samples were flash frozen and kept on dry ice until stored at −70° C. prior to sample processing and analysis. Table 27 provides the study design for the oral administration of Compound A in mice and summary of mouse PK parameters.
Non compartmental pharmacokinetic (NCA) analysis was performed on plasma concentration data using WinNonlin module in the Phoenix Platform (version 8.3.1 or above, Certara Inc., Princeton, NJ 08540). Calculations were performed using nominal sampling times in the pharmacokinetic analysis. All pharmacokinetic parameters and summary statistics are reported to 3 significant digits except for Tmax, which is reported to 2 decimal places. • Cmax: Observed peak blood/plasma concentration • Tmax: Time to reach observed peak blood/plasma concentration • kel: Elimination rate constant determined by linear regression analysis of selected time points in the apparent terminal phase of the log plasma concentration vs. time curve (not reported) • t1/2: Apparent terminal half-life calculated as ln(2)/kel • MRT: Mean time a drug molecule resides in body • AUC0-last: Area under the plasma concentration vs. time curve from 0 to the last quantifiable concentration calculated by the linear trapezoidal method • AUC0-inf: Area under the plasma concentration vs. time curve from 0 h to infinity, calculated as AUC0-last+Clast/kel

Compound `C[C@@H](NC(=O)c1ncnc(N)c1Cl)c1ncc(C(=O)Nc2cc(C(F)(F)F)c(Cl)cn2)s1` [DAY 101 API] has an AUC0-inf of 407 ± 20.4 µg·h/mL, an AUC0-last of 300 ± 24.7 µg·h/mL and a Cmax of 18300 ± 1510 ng/mL. For the same compound, the MRTlast was 9.42 ± 0.573 h, the Tmax was 8.00 ± 0.00 h and the t1/2 was 12.7 ± 2.30 h.
